# In ChEMBL document CHEMBL1201862, “PubChem BioAssay data set” (2004):
#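 Grown in 96-well plates, cells were treated for 48 hours with each compound at five concentrations. Insufficient inhibition: endpoint recorded as highest concentration tested. GI50 marks 50% less growth.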 Activity calls are given as the source filed them. No stated cut-off is given here; in the data, active = GI50 up to about 1.1 µM and inactive = higher.
# Experiments:
# Assay in all cases: growth of human tumour cells (NCI), 48 h
# CCRF-CEM = system: CCRF-CEM
# SK-MEL-5 = system: SK-MEL-5
# COLO 205 = system: COLO 205
# OVCAR-3 = system: OVCAR-3
# SF-295 = system: SF-295
# HOP-62 = system: HOP-62
# SK-MEL-2 = system: SK-MEL-2
# HCC 2998 = system: HCC 2998
# HOP-92 = system: HOP-92
# U-251 = system: U-251
# NCI-H23 = system: NCI-H23
# HCT-116 = system: HCT-116
# BT-549 = system: BT-549
# NCI/ADR-RES = system: NCI/ADR-RES
# RPMI-8226 = system: RPMI-8226
# MCF7 = system: MCF7
# A549 = system: A549
# SK-MEL-28 = system: SK-MEL-28
# RXF 393 = system: RXF 393
SMILES,GI50 (CCRF-CEM),GI50 (SK-MEL-5),GI50 (COLO 205),GI50 (OVCAR-3),GI50 (SF-295),GI50 (HOP-62),GI50 (SK-MEL-2),GI50 (HCC 2998),GI50 (HOP-92),GI50 (U-251),GI50 (NCI-H23),GI50 (HCT-116),GI50 (BT-549),GI50 (NCI/ADR-RES),GI50 (RPMI-8226),GI50 (MCF7),GI50 (A549),GI50 (SK-MEL-28),GI50 (RXF 393)
CC(C)n1c2c(c3ccccc3c1=O)C(=O)c1ccccc1-2,> 100 µM (inactive),> 100 µM (inactive),> 100 µM (inactive),> 100 µM (inactive),> 100 µM (inactive),> 100 µM (inactive),> 100 µM (inactive),> 100 µM (inactive),> 100 µM (inactive),> 100 µM (inactive),> 100 µM (inactive),> 100 µM (inactive),> 100 µM (inactive),> 100 µM (inactive),> 100 µM (inactive),> 100 µM (inactive),> 100 µM (inactive),> 100 µM (inactive),–
[O-][N+](CCO)(CCO)c1ncnc2[nH]cnc12,> 100 µM (inactive),> 100 µM (inactive),> 100 µM (inactive),> 100 µM (inactive),> 100 µM (inactive),> 100 µM (inactive),> 100 µM (inactive),> 100 µM (inactive),–,> 100 µM (inactive),> 100 µM (inactive),> 100 µM (inactive),> 100 µM (inactive),> 100 µM (inactive),> 100 µM (inactive),76.6 µM (inactive),> 100 µM (inactive),> 100 µM (inactive),> 100 µM (inactive)
Cc1c(C)c(C)c(Cn2[nH]c(=O)n(C)c2=O)c(C)c1C,> 100 µM (inactive),> 100 µM (inactive),> 100 µM (inactive),–,> 100 µM (inactive),> 100 µM (inactive),> 100 µM (inactive),> 100 µM (inactive),> 100 µM (inactive),> 100 µM (inactive),> 100 µM (inactive),> 100 µM (inactive),> 100 µM (inactive),> 100 µM (inactive),> 100 µM (inactive),> 100 µM (inactive),> 100 µM (inactive),> 100 µM (inactive),–
COC(=O)CCNC(=O)OCc1ccccc1,> 100 µM (inactive),> 100 µM (inactive),> 100 µM (inactive),> 100 µM (inactive),> 100 µM (inactive),> 100 µM (inactive),> 100 µM (inactive),> 100 µM (inactive),–,> 100 µM (inactive),> 100 µM (inactive),> 100 µM (inactive),> 100 µM (inactive),> 100 µM (inactive),> 100 µM (inactive),> 100 µM (inactive),> 100 µM (inactive),> 100 µM (inactive),–
Brc1ccc(-c2[nH]c3ccccc3c2/C=N\Nc2ccc(-c3nc4ccccc4[nH]3)cc2)cc1,< 0.01 µM (active),< 0.01 µM (active),< 0.01 µM (active),< 0.01 µM (active),< 0.01 µM (active),< 0.01 µM (active),< 0.0139 µM (active),< 0.01 µM (active),–,< 0.01 µM (active),< 0.01 µM (active),< 0.01 µM (active),2.08 µM (inactive),< 0.01 µM (active),< 0.01 µM (active),< 0.0171 µM (active),< 0.01 µM (active),–,< 0.01 µM (active)
COc1nc(-c2c[nH]c3ccccc23)cnc1N,0.809 µM (active),37.9 µM (inactive),29 µM (inactive),39.6 µM (inactive),29.4 µM (inactive),48.9 µM (inactive),25 µM (inactive),67.9 µM (inactive),0.0306 µM (active),31 µM (inactive),–,21.7 µM (inactive),33.7 µM (inactive),38.5 µM (inactive),1.01 µM (active),2.85 µM (inactive),31.2 µM (inactive),25.5 µM (inactive),–
